Laboratory results taken from patent US11897862B2 (Gilead Sciences, Inc., priority 2022, dated 2024).

Experiments:
Type in all cases: cell-based
[1] = target: T1, IKZF1 (Homo sapiens, UniProt Q13422+Q96SW2); assay: HEK293 HiBiT in vitro degradation of IKZF1; conditions: for Dmax: HEK293, HEK293 HiBiT; for DC50: 18-24 hr incubation, normalized to DMSO control, read-out: IKZF1 EC50
T1 construct: expressed in transfected cells
Procedure, shortened: (§1)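 Flp-In T-REx HEK293 pools stably expressing C-terminal HiBiT-tagged IKZF1, IKZF2 or SALL4 (single-copy, Tet-On), induced overnight with […] doxycycline. Cells exposed to serially diluted compounds for 18-24 hr at 37° C. Nano-Glo lytic luminescence gave EC50 and Dmax.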

[2] = target: T2, IKZF2 (Homo sapiens, UniProt Q96SW2+Q9UKS7); assay: Human whole blood IKZF2 degradation (flow cytometry, CD4/CD25/Foxp3+ Treg cells); parameters: endogenous in cells; conditions: 24 hrs incubation, IKZF2 MFI in CD4/CD25/Foxp3+ Treg cells, flow cytometry; for DC50: read-out: IKZF2 EC50
Procedure: In vitro IKZF2 potency was assessed in human whole blood using a fluorescence activated cell sorting assay. 50 μL of freshly collected blood from healthy human volunteers was incubated with Immunocult CD3/CD28 activator (Stemcell Technologies) and solution of testing compounds (serially-diluted) for 24 hrs hours at 37° C. in 384 well plates. The treated red blood cells were removed by adding lysis buffer (BD cat #558049) then the cells were fixed, permeabilized, and stained with anti-CD4 (BD cat #564419), anti-Foxp3 (Invitrogen cat #48-4777-42), anti-IKZF1 (Cell Signaling Tech. cat #33462S), and anti-IKZF2(Cell Signaling Tech. cat #65432S) antibodies. The median fluorescent intensity (MFI) of IKZF2 signal from CD4/CD25/Foxp3+ Treg cells and MFI of IKZF1 signal from CD4+ T cells were quantified in the same samples by flow cytometry using an Attune instrument. EC50 and Dmax of each compound was determined by plotting the MFI and DMSO treated wells were used as control. Asterisks (*) indicate examples for which data represents an average of n≥3 repeat experiments.
Target sequence in this assay (Q9UKS7 whole entry): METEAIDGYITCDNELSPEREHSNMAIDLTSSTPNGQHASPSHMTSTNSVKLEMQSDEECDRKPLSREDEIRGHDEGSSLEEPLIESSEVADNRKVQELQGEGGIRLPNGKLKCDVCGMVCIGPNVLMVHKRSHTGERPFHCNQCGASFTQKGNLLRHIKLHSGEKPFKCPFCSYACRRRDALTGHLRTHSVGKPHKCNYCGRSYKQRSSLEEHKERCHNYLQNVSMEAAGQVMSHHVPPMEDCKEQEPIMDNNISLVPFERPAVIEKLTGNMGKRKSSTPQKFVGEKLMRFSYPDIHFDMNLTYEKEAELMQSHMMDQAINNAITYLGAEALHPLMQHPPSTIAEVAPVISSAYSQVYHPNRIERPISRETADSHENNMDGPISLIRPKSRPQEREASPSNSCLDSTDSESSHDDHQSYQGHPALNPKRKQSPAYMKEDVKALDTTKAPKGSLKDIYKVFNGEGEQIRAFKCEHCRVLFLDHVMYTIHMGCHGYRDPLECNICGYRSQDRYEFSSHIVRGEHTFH
Target sequence in this assay (Q96SW2 whole entry): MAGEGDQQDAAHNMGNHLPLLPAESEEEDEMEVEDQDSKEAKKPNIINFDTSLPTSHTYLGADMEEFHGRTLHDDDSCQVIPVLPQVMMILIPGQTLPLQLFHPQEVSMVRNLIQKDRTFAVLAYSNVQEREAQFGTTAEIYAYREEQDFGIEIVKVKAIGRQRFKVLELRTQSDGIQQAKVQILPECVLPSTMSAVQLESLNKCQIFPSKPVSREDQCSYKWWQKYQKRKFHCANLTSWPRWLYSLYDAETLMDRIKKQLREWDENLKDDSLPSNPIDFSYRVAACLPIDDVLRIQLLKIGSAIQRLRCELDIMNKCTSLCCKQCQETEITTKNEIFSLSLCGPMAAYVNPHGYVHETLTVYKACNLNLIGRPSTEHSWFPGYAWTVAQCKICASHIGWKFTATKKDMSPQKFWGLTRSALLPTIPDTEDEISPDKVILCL
Target sequence in this assay (Q16531 whole entry partner): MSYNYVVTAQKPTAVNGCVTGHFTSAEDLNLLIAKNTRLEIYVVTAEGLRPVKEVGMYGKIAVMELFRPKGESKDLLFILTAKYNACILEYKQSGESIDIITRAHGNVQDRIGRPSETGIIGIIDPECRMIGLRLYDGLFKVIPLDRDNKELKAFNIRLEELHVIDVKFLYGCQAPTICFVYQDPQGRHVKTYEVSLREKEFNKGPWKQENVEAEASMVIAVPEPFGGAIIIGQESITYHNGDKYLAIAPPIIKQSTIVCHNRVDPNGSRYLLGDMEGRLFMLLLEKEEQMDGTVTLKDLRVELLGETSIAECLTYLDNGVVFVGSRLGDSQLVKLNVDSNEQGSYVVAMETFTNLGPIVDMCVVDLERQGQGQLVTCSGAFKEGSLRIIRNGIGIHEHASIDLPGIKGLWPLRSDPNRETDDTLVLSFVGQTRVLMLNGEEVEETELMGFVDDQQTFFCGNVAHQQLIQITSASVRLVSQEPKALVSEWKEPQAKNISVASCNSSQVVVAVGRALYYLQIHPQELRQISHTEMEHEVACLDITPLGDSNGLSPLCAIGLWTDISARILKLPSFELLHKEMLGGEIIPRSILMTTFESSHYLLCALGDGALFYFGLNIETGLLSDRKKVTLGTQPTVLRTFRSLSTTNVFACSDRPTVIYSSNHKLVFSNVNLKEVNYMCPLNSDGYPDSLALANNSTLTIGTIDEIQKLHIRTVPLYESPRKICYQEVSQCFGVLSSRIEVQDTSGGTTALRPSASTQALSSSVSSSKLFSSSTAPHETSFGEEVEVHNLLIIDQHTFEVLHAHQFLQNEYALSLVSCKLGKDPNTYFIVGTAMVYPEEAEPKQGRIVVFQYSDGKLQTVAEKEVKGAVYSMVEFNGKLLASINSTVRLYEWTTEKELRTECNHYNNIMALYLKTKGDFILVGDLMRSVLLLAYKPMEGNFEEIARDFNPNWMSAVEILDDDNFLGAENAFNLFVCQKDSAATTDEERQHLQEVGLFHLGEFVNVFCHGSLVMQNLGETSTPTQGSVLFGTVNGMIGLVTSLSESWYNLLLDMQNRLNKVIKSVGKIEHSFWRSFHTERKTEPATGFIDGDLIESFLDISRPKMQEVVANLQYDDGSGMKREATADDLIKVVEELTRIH

[3] = target: T2, IKZF2; assay: HEK293 HiBiT in vitro degradation of IKZF2; parameters: expressed in transfected cells; conditions: for Dmax: HEK293, HEK293 HiBiT; for Dmax / IKZF2 Dmax: maximum degradation at the highest concentration tested; for DC50 / IKZF2 Dmax: HEK293 HiBiT; for DC50: 18-24 hr incubation, normalized to DMSO control, read-out: IKZF2 EC50
Procedure, shortened: as §1
Target sequence in this assay (Q9UKS7 1-500 isoform Q9UKS7-2): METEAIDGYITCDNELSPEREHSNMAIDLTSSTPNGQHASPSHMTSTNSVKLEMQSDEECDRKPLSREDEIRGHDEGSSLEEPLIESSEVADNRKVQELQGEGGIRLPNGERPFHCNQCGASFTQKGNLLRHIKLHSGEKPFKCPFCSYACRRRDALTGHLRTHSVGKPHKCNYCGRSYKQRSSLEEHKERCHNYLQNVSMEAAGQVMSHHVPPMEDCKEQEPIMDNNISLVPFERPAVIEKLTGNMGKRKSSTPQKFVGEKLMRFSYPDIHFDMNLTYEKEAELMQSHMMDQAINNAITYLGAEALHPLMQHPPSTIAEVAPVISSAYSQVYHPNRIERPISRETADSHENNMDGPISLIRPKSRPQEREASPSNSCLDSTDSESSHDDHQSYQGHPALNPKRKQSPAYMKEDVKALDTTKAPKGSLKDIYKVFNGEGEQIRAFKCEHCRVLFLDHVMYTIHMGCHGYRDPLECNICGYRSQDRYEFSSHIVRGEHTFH
Target sequence in this assay (Q96SW2 whole entry): as the sequence (Q96SW2 whole entry) above
Target sequence in this assay (Q16531 whole entry partner): as the sequence (Q16531 whole entry partner) above

[4] = maximum degradation at the highest concentration tested

T1 sequence (Q13422 whole entry): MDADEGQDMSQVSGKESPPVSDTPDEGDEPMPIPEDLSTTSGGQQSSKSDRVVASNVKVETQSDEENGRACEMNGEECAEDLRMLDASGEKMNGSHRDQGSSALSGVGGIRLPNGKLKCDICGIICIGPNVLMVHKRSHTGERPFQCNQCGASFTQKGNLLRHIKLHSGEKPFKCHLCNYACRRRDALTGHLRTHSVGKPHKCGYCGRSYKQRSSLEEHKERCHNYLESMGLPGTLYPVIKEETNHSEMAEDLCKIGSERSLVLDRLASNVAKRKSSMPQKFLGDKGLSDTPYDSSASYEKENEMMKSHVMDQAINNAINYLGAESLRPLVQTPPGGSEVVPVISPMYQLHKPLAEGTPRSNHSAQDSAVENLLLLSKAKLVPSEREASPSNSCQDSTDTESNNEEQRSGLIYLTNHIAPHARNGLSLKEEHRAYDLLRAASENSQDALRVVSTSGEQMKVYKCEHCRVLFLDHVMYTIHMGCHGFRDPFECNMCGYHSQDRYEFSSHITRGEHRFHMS
T1 sequence (Q96SW2 whole entry): as the sequence (Q96SW2 whole entry) above
T1 sequence (Q16531 whole entry partner): as the sequence (Q16531 whole entry partner) above

| SMILES | Dmax [1, 4] [%] | DC50 ([1]; HEK293 HiBiT) [nM] | Dmax [2] [%] | DC50 [2] [nM] | Dmax [3] [%] | DC50 [3] [nM] | IKZF1 Dmax ([1]; HEK293 HiBiT, maximum degradation at the highest concentration tested) [%] | IKZF2 Dmax [3] [%] | IKZF2 Dmax [2] [%] |
| --- | --- | --- | --- | --- | --- | --- | --- | --- | --- |
| C[C@]1(O)CC[C@H](NC2CCC(F)(F)CC2)[C@@H](Cc2ccc3c(c2)CN(C2CCC(=O)NC2=O)C3=O)C1 (stereo partly shown) [Example 155] | 27 | 226 | 91 | 12 | 97 | 30 |  |  |  |
| COC1CCC(N[C@H]2CCCO[C@@H]2Cc2ccc3c(c2F)CN(C2CCC(=O)NC2=O)C3=O)CC1 (stereo partly shown) [Example 159] |  | > 1000 | 94 | 5 | 100 | 6 |  |  |  |
| O=C1CCC(N2Cc3cc(C[C@H]4CCCC[C@@H]4NC4CCCCCC4)ccc3C2=O)C(=O)N1 (stereo partly shown) [Example 196] | 23 | 60 | 98 | 3 | 97 | 3 |  |  |  |
| CC(N[C@H]1CCCC[C@@H]1Cc1ccc2c(c1)CN(C1CCC(=O)NC1=O)C2=O)C1(C)CCC1 (stereo partly shown) [Example 206] |  | > 1000 | 101 | 10 | 95 | 6 |  |  |  |
| CC1(C)CC(N[C@H]2CCCC[C@@H]2Cc2ccc3c(c2)CN(C2CCC(=O)NC2=O)C3=O)CC(C)(C)O1 (stereo partly shown) [Example 208] | 26 | 76 | 97 | 3 | 98 | 2 |  |  |  |
| [2H]C1(N[C@H]2CCCC[C@@H]2Cc2ccc3c(c2)CN(C2CCC(=O)NC2=O)C3=O)CC(C)(C)C1 (stereo partly shown) [Example 214] | 22 | 65 | 98 | 3 | 96 | 5 |  |  |  |
| O=C1CCC(N2Cc3cc(C[C@H]4CCCC[C@@H]4NC4CCC(C(F)F)CC4)ccc3C2=O)C(=O)N1 (stereo partly shown) [Example 217] |  | 85 | 89 | 2 |  | 3 | 44 | 97 |  |
| CC(N[C@H]1CCCC[C@@H]1Cc1ccc2c(c1)CN(C1CCC(=O)NC1=O)C2=O)C1CCC1 (stereo partly shown) [Example 219] |  | > 1000 |  | 10 |  | 6 |  | 95 | 97 |
| CC(CC(C)(C)C)N[C@H]1CCCC[C@@H]1Cc1ccc2c(c1)CN(C1CCC(=O)NC1=O)C2=O (stereo partly shown) [Example 220] |  | > 1000 | 98 | 3 |  | 2 |  | 96 |  |
| CC(CC(C)(C)C)N[C@H]1CCCC[C@@H]1Cc1ccc2c(c1)CN(C1CCC(=O)NC1=O)C2=O (stereo partly shown) [Example 221] |  | > 1000 |  | 4 |  | 2 |  | 98 | 101 |
| CC1(C)CC(N[C@H]2CCCO[C@@H]2Cc2ccc3c(c2F)CN(C2CCC(=O)NC2=O)C3=O)CCO1 (stereo partly shown) [Example 222] |  | > 1000 | 95 | 6 | 96 | 18 |  |  |  |
| CC1(C)CC(N[C@H]2CCCO[C@@H]2Cc2ccc3c(c2F)CN(C2CCC(=O)NC2=O)C3=O)CCO1 (stereo partly shown) [Example 223] |  | > 1000 |  | 3 |  | 12 |  | 96 | 95 |
| O=C1CCC(N2Cc3c(ccc(C[C@H]4OCCC[C@@H]4NC4CCOCC4)c3F)C2=O)C(=O)N1 (stereo partly shown) [Example 305] |  | > 1000 | 95 | 4 | 96 | 14 |  |  |  |
